Measurements taken from patent publication US20140193529A1, “Modulation of Thymosin Beta-4 in Skin” (AVON PRODUCTS, INC., priority 2013, published 2014).

Key:
[1] = tested on: thymosin beta-4 (TMSB4X) mRNA; assay: Thymosin beta-4 stimulation assay (QUANTIGENE multiplex mRNA assay); format: cell-based; conditions: human dermal fibroblasts, 24 hours
Description: Normal human dermal fibroblasts were cultured in 96-well tissue culture-treated plates, containing appropriate culture medium. Stock solutions of actives were made in an appropriate vehicle (water or DMSO). Cells were treated with test material or respective vehicle control diluted in growth medium for 24 hours in a humidified 37° C. incubator with 10% CO2. After incubation, growth medium from each plate was removed and 100 μL, of lysis buffer was added to the wells and placed in 37° C. incubator with 10% CO2 for 30 minutes. At the end of incubation, the cell lysates were collected in freezer plates and placed in −80° C. freezer until analysis. Changes in mRNA for thymosin beta-4 (TMSB4X) after treatment were analyzed using Affymetrix's QUANTIGENE® multiplex assay that employs a branched DNA signal amplification technology, following the manufacturer's instructions (Affymetrix, Calif.). Percent increase in mRNA for thymosin beta-4 (TMSB4X) was calculated by comparing the test results to the control. The percent up-regulation is converted to a scaled score as shown below in Table 2.
A variety of botanical extracts were tested for the ability to up-regulate Thymosin beta-4 according to the method of Example 1. The concentrations of each extract are provided based on the dry weight of the given plant extract, by which is meant the weight of the extract after volatile extraction solvents have been removed. The cells tested were primary human dermal fibroblasts.
Synthetic compounds 1-4 were also tested as active agents for the ability to upregulate thymosin beta-4 according to the method of Example 1.

thymosin beta-4 = assay: Mode of operation of retinol in human skin
[2] = tested on: IL-8 gene and protein expression; assay: Anti-inflammatory effect of TB-4 in TNF-alpha treated human dermal fibroblasts (qPCR, ELISA, PCR array); format: cell-based
Description: Commercially obtained human dermal fibroblasts were treated with tumor necrosis factor alpha for 6 hours to induce inflammation. Cells were either pre-treated with recombinant TB-4 or control media to assess its anti-inflammatory effect. Cell lysates and media were collected and qPCR and ELISA were performed to assess IL-8 gene and protein expression. Human cytokines and chemokines PCR array was also performed to investigate the impact of TB-4 on the expression profile of key secreted proteins in the inflammation pathway. […] Therefore, modulating endogenous TB-4 could be adopted as an avenue to battle inflammatory skin damage resulting from skin chronological aging and photoaging.

With `Cc1ccc(C(=O)CC(NCc2ccccc2)C(=O)O)cc1` (stereo not shown) [Compound 2] the “Thymosin beta-4 (TMSB4X) Degree of Upregulation” value (from here on “Thymosin beta-4 (TMSB4X) Degree”) ([1]; compound Conc. 0.0001%) was “+ (21-40)”.
With `CC1=C(/C=C/C(C)=C/C=C/C(C)=C/CO)C(C)(C)CCC1` [retinol] the “upregulation of thymosin beta-4” value (thymosin beta-4) was “potent upregulator”.
For “TB-4: recombinant thymosin beta-4, 43 amino acid peptide, 4.9 kDa (SDKPDMAEIEKFDKSKLKKTETQEKNPLPSKETIEQEKQAGES; UniProt P62328 2-44, looked up)”, the “regulation of key cytokines and chemokines genes” value ([2]; human cytokines and chemokines PCR array, TNF-alpha treated fibroblasts) was “significantly regulates”, the “suppression of IL-8 protein secretion caused by TNF-alpha stimulation” value ([2]; pre-treatment with recombinant TB-4, TNF-alpha 6 hours, ELISA) was “greater than 50%” and the “suppression of IL-8 gene expression caused by TNF-alpha stimulation” value ([2]; pre-treatment with recombinant TB-4, TNF-alpha 6 hours, qPCR) was “greater than 50%”.
For `CCc1c(C(=O)N2CCCC2)cnn1-c1ccccc1Cl` [Compound 4], the “Thymosin beta-4 (TMSB4X) Degree” value ([1]; compound Conc. 0.00001%) was “+ (21-40)”.
`CCOCCCNC(=O)c1cc(NC(=O)/C=C/c2ccccc2)ccc1N1CCC(Cc2ccccc2)CC1` [Compound 1] was tested, and the “Thymosin beta-4 (TMSB4X) Degree” value ([1]; compound Conc. 0.001%) was “++ (41-60)”.
